Results as given in patent publication US12371454B2, “Cyclic peptide compound having Kras inhibitory action” (priority 2019, dated 2025).
Positions of bridges follow the written chain, without caps; N, C: chain ends. Non-standard residues stand in square brackets, D forms with d. Residues, ends and D or L forms follow the SMILES beside them. *: point of attachment. hPhe(3-Cl-4-CF3) = N[C@@H](CCc1ccc(C(F)(F)F)c(Cl)c1)C(=O)O; NMePhe(3-Cl) = CN[C@@H](Cc1cccc(Cl)c1)C(=O)O; NMePhe(4-Cl) = CN[C@@H](Cc1ccc(Cl)cc1)C(=O)O; NMePhe(4-Me) = CN[C@@H](Cc1ccc(C)cc1)C(=O)O; NMeGly(cPent) = CN[C@H](C(=O)O)C1CCCC1; Phe(3-F) = N[C@@H](Cc1cccc(F)c1)C(=O)O; Phe(3-I) = N[C@@H](Cc1cccc(I)c1)C(=O)O; NMeGly(cBu) = CN[C@H](C(=O)O)C1CCC1; NMeCha = CN[C@@H](CC1CCCCC1)C(=O)O; Azetidine(3,3-F2) = FC1(F)CN(*)C1; NMeChg = CN[C@H](C(=O)O)C1CCCCC1; NMeF = CN[C@@H](Cc1ccccc1)C(=O)O; NMeE = CN[C@@H](CCC(=O)O)C(=O)O; NMeD = CN[C@@H](CC(=O)O)C(=O)O; NMeL = CN[C@@H](CC(C)C)C(=O)O; NMeNva = CCC[C@H](NC)C(=O)O; NMeV = CN[C@H](C(=O)O)C(C)C; d(β3hA) = C[C@@H](N)CC(=O)O; NMeA = CN[C@@H](C)C(=O)O; NMeAib = CNC(C)(C)C(=O)O; Piperidide = C1CCN(*)CC1; Pyrrolidide = C1CCN(*)C1; Ac5c = NC1(C(=O)O)CCCC1; Aze = O=C(O)[C@@H]1CCN1; Sar = CNCC(=O)O

Target: T1, Kras and SOS1 (biotin-tagged human Kras loaded with GDP, His-tagged human SOS1) (Homo sapiens, UniProt P01116, G12D)
T1 construct: made in house; host or cells: E. coli (stated for Kras only)
T1 sequence (P01116 1-188 isoform P01116-2 G12D): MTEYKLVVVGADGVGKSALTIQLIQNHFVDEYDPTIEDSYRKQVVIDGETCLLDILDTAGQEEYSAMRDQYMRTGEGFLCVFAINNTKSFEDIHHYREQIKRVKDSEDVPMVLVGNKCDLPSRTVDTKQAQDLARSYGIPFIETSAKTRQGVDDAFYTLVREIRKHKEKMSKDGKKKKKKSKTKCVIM
Test: Protein-protein interaction inhibition between Kras and SOS1 (KrasGl2D-SOS PPI) using AlphaScreen
Format: binding
Details: AlphaScreen; biotin-tagged human Kras loaded with GDP, His-tagged human SOS1; read-out: KRAS G12D-SOS PPI IC50
Procedure, shortened: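 Read-out is acceptor-bead light at 520-620 nm, arising when 680 nm-irradiated nickel donor beads pass singlet oxygen to streptavidin acceptors. The bead pair links His-tagged SOS1 with biotin-tagged, GDP-bound Kras from E. coli.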

Compound	IC50
CC[C@H](C)[C@@H]1NC(=O)[C@H](CC(C)C)N(C)C(=O)C[C@@H](C(=O)N(C)C)N(C)C(=O)[C@H](C2CCCC2)N(C)C(=O)C2(CCCC2)NC(=O)[C@H](Cc2cccc(Cl)c2)N(C)C(=O)[C@H](CCc2ccc(C(F)(F)F)c(Cl)c2)NC(=O)CN(C)C(=O)[C@H](CC2CCCCC2)N(C)C(=O)[C@@H]2CCN2C(=O)[C@H](C)N(C)C1=O [Compound 179] ([NMeL]I[NMeA][Aze][NMeCha][Sar][hPhe(3-Cl-4-CF3)][NMePhe(3-Cl)][Ac5c][NMeGly(cPent)][NMeD]-NMe2; lactam N-11)	42 nM
CC[C@H](C)[C@@H]1NC(=O)[C@H](CC(C)C)N(C)C(=O)C[C@@H](C(=O)N2CCCCC2)N(C)C(=O)[C@H](C(C)C)N(C)C(=O)C2(CCCC2)NC(=O)[C@@H]2CCCN2C(=O)[C@H](CCc2ccc(C(F)(F)F)c(Cl)c2)NC(=O)CN(C)C(=O)[C@H](CC2CCCCC2)N(C)C(=O)[C@@H]2CCN2C(=O)[C@H](CCC(=O)NC)N(C)C1=O [Compound 180] ([NMeL]I[NMeE](NHMe)[Aze][NMeCha][Sar][hPhe(3-Cl-4-CF3)]P[Ac5c][NMeV][NMeD]-Piperidide; lactam N-11)	11 nM
CC[C@H](C)[C@@H]1NC(=O)[C@H](CC(C)C)N(C)C(=O)C[C@@H](C)NC(=O)[C@H](C2CCC2)N(C)C(=O)C2(CCCC2)NC(=O)[C@@H]2CCCN2C(=O)[C@H](CCc2ccc(C(F)(F)F)c(Cl)c2)NC(=O)CN(C)C(=O)[C@H](CC2CCCCC2)N(C)C(=O)CN(C)C(=O)CN(C)C1=O [Compound 183] (cyclo([Ac5c][NMeGly(cBu)][d(β3hA)][NMeL]I[Sar][Sar][NMeCha][Sar][hPhe(3-Cl-4-CF3)]P))	26 nM
CC[C@H](C)[C@@H]1NC(=O)[C@H](C)N(C)C(=O)C[C@@H](C(=O)N2CCCC2)NC(=O)[C@H](C(C)C)N(C)C(=O)[C@H](Cc2ccccc2)N(C)C(=O)[C@H](Cc2ccccc2)NC(=O)[C@H](Cc2cccc(F)c2)NC(=O)CN(C)C(=O)[C@H](Cc2ccc(Cl)cc2)N(C)C(=O)CN(C)C(=O)CN(C)C1=O [Compound 184] ([NMeA]I[Sar][Sar][NMePhe(4-Cl)][Sar][Phe(3-F)]F[NMeF][NMeV]D-Pyrrolidide; lactam N-11)	320 nM
CC[C@H](C)[C@@H]1NC(=O)[C@H](CC(C)C)N(C)C(=O)C[C@@H](C)NC(=O)[C@H](C(C)C)N(C)C(=O)C2(CCCC2)NC(=O)[C@@H]2CCCN2C(=O)[C@H](CCc2ccc(C(F)(F)F)c(Cl)c2)NC(=O)CN(C)C(=O)[C@H](CC2CCCCC2)N(C)C(=O)CN(C)C(=O)[C@@H]2CCCN2C1=O [Compound 185] (cyclo([Ac5c][NMeV][d(β3hA)][NMeL]IP[Sar][NMeCha][Sar][hPhe(3-Cl-4-CF3)]P))	170 nM
CC[C@H](C)[C@@H]1NC(=O)[C@H](C)N(C)C(=O)C[C@@H](C)NC(=O)[C@H](C2CCCC2)N(C)C(=O)C2(CCCC2)NC(=O)[C@@H]2CCCN2C(=O)[C@H](CCc2ccc(C(F)(F)F)c(Cl)c2)NC(=O)CN(C)C(=O)[C@H](Cc2cccc(Cl)c2)N(C)C(=O)[C@@H]2CCCN2C(=O)CN(C)C1=O [Compound 186] (cyclo([Ac5c][NMeGly(cPent)][d(β3hA)][NMeA]I[Sar]P[NMePhe(3-Cl)][Sar][hPhe(3-Cl-4-CF3)]P))	48 nM
CCC[C@H]1C(=O)N(C)CC(=O)N[C@@H](CCc2ccc(C(F)(F)F)c(Cl)c2)C(=O)N2CCC[C@H]2C(=O)NC2(CCCC2)C(=O)N(C)[C@@H](C2CCCCC2)C(=O)N(C)[C@H](C(=O)N2CCCCC2)CC(=O)N(C)[C@@H](CC(C)C)C(=O)N[C@@H]([C@@H](C)CC)C(=O)N(C)CC(=O)N(C)CC(=O)N1C [Compound 187] ([NMeL]I[Sar][Sar][NMeNva][Sar][hPhe(3-Cl-4-CF3)]P[Ac5c][NMeChg][NMeD]-Piperidide; lactam N-11)	3.2 nM
CC[C@H](C)[C@@H]1NC(=O)[C@H](CC(C)C)N(C)C(=O)C[C@@H](C(=O)N2CCCCC2)N(C)C(=O)[C@H](CC(C)C)NC(=O)C(C)(C)N(C)C(=O)[C@H](Cc2ccc(OC)cc2)NC(=O)[C@H](Cc2cccc(I)c2)NC(=O)CN(C)C(=O)[C@H](Cc2ccc(C)cc2)N(C)C(=O)[C@@H]2CCN2C(=O)CN(C)C1=O [Compound 188] ([NMeL]I[Sar][Aze][NMePhe(4-Me)][Sar][Phe(3-I)]Y(Me)[NMeAib]L[NMeD]-Piperidide; lactam N-11)	6.1 nM
CC[C@H](C)[C@@H]1NC(=O)[C@H](C)N(C)C(=O)C[C@@H](C(=O)N2CCCCC2)N(C)C(=O)[C@H](C(C)C)N(C)C(=O)[C@H](CC(C)C)NC(=O)[C@H](CC(=O)N2CC(F)(F)C2)N(C)C(=O)[C@H](CCc2ccc(C(F)(F)F)c(Cl)c2)NC(=O)CN(C)C(=O)[C@H](CC2CCCCC2)N(C)C(=O)CN(C)C(=O)CN(C)C1=O [Compound 190] ([NMeA]I[Sar][Sar][NMeCha][Sar][hPhe(3-Cl-4-CF3)][NMeD](Azetidine(3,3-F2))L[NMeV][NMeD]-Piperidide; lactam N-11)	150 nM
